The values below come from US10383819B1, “Method to effect biphasic bioavailability of oral euphoric psychogenic cannabinoids” (Callitas Therapeutics, Inc., priority 2018, dated 2019).

A short description of data set [1]: Menthol/1-arginine enhanced oral mucous membrane absorption of THC and euphoric effect. On the procedure:
FIG. 1 of Human Cannabinoid Pharmacokinetics, by Marilyn A. Huestis, (www.pubmed.gov/17712819) published as Chem Biodivers. 2007 August: 4(8): 1770-1804. […] This is with 8 inhalations over 10 minutes, in 6 patients. […] The method entails maintaining the menthol/1-arginine/THC coated edible THC in the oral cavity for about 10 minutes before chewing the edible.

Data set [2] in a line: Respiratory depression. The note with it: in vivo. On the procedure: The biphasic THC bioavailability, rapid oral absorption of THC, and the delayed, subsequent conversion of THC into 11-OH THC, provide both an immediate euphoric state and an extended euphoric state, 12-18 hours, that could provide a safe drug alternative to opioids. Opioids cause respiratory depression and overdose deaths from respiratory depression relative to opioid dose. This is the rationale of the second reference, and the reason that Massachusetts prioritized recreational cannabis dispensary licenses to areas of high opioid overdose deaths.

For data set [3] the following is noted: cited from earlier work.
The conditions of data set [4]: cited from earlier work. The source holds these as a separate data set.
Where [5] appears, read: menthol/1-arginine enhanced, oral cavity.

Regarding `CCCCCc1cc(O)c2c(c1)OC(C)(C)[C@@H]1CCC(C)=C[C@@H]21` [THC, delta-9 tetrahydrocannabinol], in data set [1] (setting [5]), the “oral mucous membrane absorption of THC relative to the efficacy of smoked/inhaled THC” value is “about 70%” and the “window in which oral mucous membrane absorption occurs” value lay in the range of 10 to 15 min. The “duration of euphoric effect” value in data set [1] (orally absorbed THC, depending upon THC dosage) is 4 to 8 h. Besides, the respiratory depression result in data set [2] is given as “do not cause respiratory depression”. The “metabolism of inhaled or smoked THC into 11-OH THC” value in data set [3] (inhaled or smoked) is “not metabolized into 11-OH THC”. Also, in data set [3] (smoking 3.55% THC cannabis, 8 inhalations over 10 minutes, 6 patients, from 0 in 10 minutes), the “rise of plasma THC” value is 150 micrograms/ml. Also, in data set [4] (after ingestion of THC), the “duration of plasma concentration” value was 12 h.
Turning to Cannabis, in data set [2], the respiratory depression entry is “do not cause respiratory depression”.
On to `CCCCCc1cc(O)c2c(c1)OC(C)(C)[C@@H]1CCC(CO)=C[C@@H]21` [11-OH THC, 11-hydroxy tetrahydrocannabinol], for which the respiratory depression entry in data set [2] is “do not cause respiratory depression”. The “maximum effect (plasma concentration)” value in data set [4] (6 hours after ingestion) was 110 micrograms/ml. In addition, in data set [4] (after ingestion of THC), the “area under the curve (AUC) of plasma concentration relative to THC” value is reported as “triple”, the “duration of plasma concentration” value is recorded as “over 24 hours”, the “plasma concentration at peak effect relative to the peak THC plasma concentration” value was “double” and the “time after ingestion up to which an effect is produced” value is recorded as “up to 15 hours”. Also, the “time of maximum effect after ingestion” value in data set [4] (after ingestion of THC) was 6 h.
